Blank lines part the entries; values can stand above or below the compound they belong to. Activity calls are given as the source filed them.
What was measured:
[1] = molecular target: Voltage-dependent T-type calcium channel subunit alpha-1H (Homo sapiens, UniProt O95180); experiment: human CACNA1H calcium influx blockade – cell-based, synthetic library set 2, HEK293 HH8, Fluo-4, SAR follow-up (AID 493023); assay type: functional
[2] = (§1) Counterscreen for antagonists of the orexin 1 receptor (OX1R; HCRTR1): Fluorescence-based cell-based high throughput dose response assay to identify antagonists of the parental CHO cell line. [Related pubchem assays (depositor defined):AID434989, AID435008, AID463079, AID485270, AID492963, AID492964, AID492965, AID493232, AID504699, AID504701]; assay type: functional
[3] = molecular target: T1, Orexin/Hypocretin receptor type 1 (Homo sapiens, UniProt O43613); experiment: (§2) Fluorescence-based cell-based high throughput dose response assay for antagonists of the orexin 1 receptor (OX1R; HCRTR1). [Related pubchem assays (depositor defined):AID434989, AID435008, AID463079, AID485270, AID492963, AID492964, AID492965, AID493232, AID504717, AID504718]; assay type: functional
T1 sequence (O43613 whole entry): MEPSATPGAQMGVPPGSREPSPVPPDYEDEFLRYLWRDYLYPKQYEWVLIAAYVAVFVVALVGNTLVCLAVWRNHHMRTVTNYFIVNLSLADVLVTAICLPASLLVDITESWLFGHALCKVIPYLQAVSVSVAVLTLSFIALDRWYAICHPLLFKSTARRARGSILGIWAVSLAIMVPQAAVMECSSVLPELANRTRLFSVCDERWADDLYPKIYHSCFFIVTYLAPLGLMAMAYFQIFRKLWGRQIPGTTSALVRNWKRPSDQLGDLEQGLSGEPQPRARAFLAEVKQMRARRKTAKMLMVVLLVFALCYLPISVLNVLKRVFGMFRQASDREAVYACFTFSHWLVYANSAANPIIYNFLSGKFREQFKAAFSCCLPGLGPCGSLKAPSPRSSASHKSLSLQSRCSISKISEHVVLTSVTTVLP

[4] = molecular target: T1, Orexin/Hypocretin receptor type 1; experiment: as §2, with “Homogeneous Time Resolved Fluorescence (HTRF)-based” for “Fluorescence-based”; assay type: functional
CHO-K1 = experiment: as §1, with “Homogeneous time resolved fluorescence (HTRF)-based” for “Fluorescence-based”, “cell-based” for “cell-based high throughput”, “CHO-K1” for “CHO”; assay type: functional; conditions: Cricetulus griseus;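 further: potency for inhibition of ATP-stimulated IP1 production as antagonists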
HEK293 [5] = experiment: inhibition of NOD1-driven NF-kB reporter – cell-based, luminescence, uHTS, primary screen (AID 1578); assay type: functional; conditions: Homo sapiens
Mu-type opioid receptor = Mu-type opioid receptor (Homo sapiens, UniProt P35372); experiment: HTS Image-Based Screen for Agonists of the MOR Receptor. [Related pubchem assays (depositor defined):AID1777, AID1785, AID1786, AID2133]; assay type: functional;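 further: imaging of beta-arrestin GFP recruitment into spots after receptor activation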
[6] = molecular target: T2, Kappa-type opioid receptor (Homo sapiens, UniProt P41145); assay type: functional
Streptococcus = experiment: GAS UMAA2166 growth inhibition – luminescence, BacTiterGlo, counter-screen for streptokinase expression inhibitor project, dose response (AID 1915); assay type: functional, organism-based;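 further: potency for reduction of bacterial viability or growth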
Beta-galactosidase [7] = molecular target: T3, Beta-galactosidase (Escherichia coli, UniProt Q8VNN2); experiment: PubChem AID 485352; assay type: functional
[8] = molecular target: T2, Kappa-type opioid receptor; assay type: functional; remark: listed apart in the source
[9] = molecular target: T4, Delta-type opioid receptor (Homo sapiens, UniProt P41143); experiment: HTS Image-Based Screen for Agonists of the DOR Receptor. [Related pubchem assays (depositor defined):AID1777, AID1786, AID2133]; assay type: functional
[10] = tested on: Streptococcus sp. 'group A'; experiment: Streptococcus pyogenes SK(-)GAS viability under kanamycin – luminescence, BacTiterGlo, confirmation, counter-screen for streptokinase expression inhibitor project, dose response (AID 1900); assay type: functional, organism-based
HEK293 [11] = experiment: cells; assay type: functional, cell-based; conditions: Homo sapiens
HEK293 [12] = experiment: cells; assay type: functional, cell-based; conditions: Homo sapiens; remark: listed apart in the source
[13] = molecular target: T4, Delta-type opioid receptor; experiment: HTS Image-Based Screen for Antagonists of the DOR Receptor. [Related pubchem assays (depositor defined):AID1777, AID1785, AID1786, AID2133]; assay type: functional
HEK293 [14] = experiment: NOD2 signaling inhibitors in MDP-stimulated cells, cell-based, uHTS, luminescence (AID 2001); assay type: functional; conditions: Homo sapiens
Beta-galactosidase [15] = molecular target: T3, Beta-galactosidase; assay type: functional
[16] = molecular target: T5, Type-1 angiotensin II receptor (Homo sapiens, UniProt P30556); experiment: antagonism of angiotensin II type 1 receptor – cell-based, uHTS hits, selectivity assay for APJ receptor antagonist project, dose response (AID 463214); assay type: functional;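 further: antagonist potency against angiotensin II stimulated AT1 response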
T5 sequence (P30556 whole entry): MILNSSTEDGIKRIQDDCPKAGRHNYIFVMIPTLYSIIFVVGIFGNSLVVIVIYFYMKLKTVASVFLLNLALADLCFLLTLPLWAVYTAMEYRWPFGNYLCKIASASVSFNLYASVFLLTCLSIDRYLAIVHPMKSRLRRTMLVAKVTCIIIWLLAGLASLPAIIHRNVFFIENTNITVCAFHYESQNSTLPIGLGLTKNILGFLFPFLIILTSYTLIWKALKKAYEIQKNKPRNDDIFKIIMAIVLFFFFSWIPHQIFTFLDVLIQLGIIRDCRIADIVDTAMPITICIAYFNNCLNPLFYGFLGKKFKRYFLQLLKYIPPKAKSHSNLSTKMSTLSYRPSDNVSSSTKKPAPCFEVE

Cannabinoid receptor 1 [17] = molecular target: T6, Cannabinoid receptor 1 (Homo sapiens, UniProt P21554); experiment: SAR analysis of agonists of the Cannabinoid Receptor 1 using an Image-Based Assay - Set 4. [Related pubchem assays (depositor defined):AID2013, AID2026]; assay type: functional
Cannabinoid receptor 1 [18] = molecular target: T6, Cannabinoid receptor 1; experiment: SAR analysis of antagonists of the Cannabinoid Receptor 1 using an Image-Based Assay - Set 4. [Related pubchem assays (depositor defined):AID2013, AID2026]; assay type: functional
[19] = molecular target: T7, G-protein coupled receptor 35 (Homo sapiens, UniProt Q9HC97); experiment: SAR analysis of Agonists of the GPR35 Receptor using an Image-Based Assay - Set 4. [Related pubchem assays (depositor defined):AID2013, AID2026]; assay type: functional
Cannabinoid receptor 2 [20] = molecular target: T8, Cannabinoid receptor 2 (Homo sapiens, UniProt P34972); experiment: SAR analysis of antagonists of the Cannabinoid Receptor 2 using an Image-Based Assay - Set 3. [Related pubchem assays (depositor defined):AID2013, AID2026]; assay type: functional
[21] = molecular target: T7, G-protein coupled receptor 35; experiment: SAR analysis of Antagonists of the GPR35 Receptor using an Image-Based Assay - Set 6. [Related pubchem assays (depositor defined):AID2013, AID2026]; assay type: functional
Cannabinoid receptor 2 [22] = molecular target: T8, Cannabinoid receptor 2; experiment: SAR analysis of agonists of the Cannabinoid Receptor 2 using an Image-Based Assay - Set 3. [Related pubchem assays (depositor defined):AID2013, AID2026]; assay type: functional
[23] = molecular target: G-protein coupled receptor 55 (Homo sapiens, UniProt Q9Y2T6); experiment: SAR Analysis of Selective Antagonists of GPR55 using an Image-Based Assay - Set 4. [Related pubchem assays (depositor defined):AID2013, AID2026]; assay type: functional;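 further: antagonism of response to 5 µM lysophosphatidylinositol agonist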
G-protein coupled receptor 55, sequence (Q9Y2T6 whole entry): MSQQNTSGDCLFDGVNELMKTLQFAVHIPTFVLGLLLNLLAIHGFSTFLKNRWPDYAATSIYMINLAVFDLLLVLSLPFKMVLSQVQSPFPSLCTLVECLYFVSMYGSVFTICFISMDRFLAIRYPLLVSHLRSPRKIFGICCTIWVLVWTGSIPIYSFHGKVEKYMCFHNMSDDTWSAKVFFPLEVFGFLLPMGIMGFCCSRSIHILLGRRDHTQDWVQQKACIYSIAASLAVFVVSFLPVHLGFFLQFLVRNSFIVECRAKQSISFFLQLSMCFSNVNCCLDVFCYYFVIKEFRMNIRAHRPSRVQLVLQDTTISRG

T4 sequence (P41143 whole entry): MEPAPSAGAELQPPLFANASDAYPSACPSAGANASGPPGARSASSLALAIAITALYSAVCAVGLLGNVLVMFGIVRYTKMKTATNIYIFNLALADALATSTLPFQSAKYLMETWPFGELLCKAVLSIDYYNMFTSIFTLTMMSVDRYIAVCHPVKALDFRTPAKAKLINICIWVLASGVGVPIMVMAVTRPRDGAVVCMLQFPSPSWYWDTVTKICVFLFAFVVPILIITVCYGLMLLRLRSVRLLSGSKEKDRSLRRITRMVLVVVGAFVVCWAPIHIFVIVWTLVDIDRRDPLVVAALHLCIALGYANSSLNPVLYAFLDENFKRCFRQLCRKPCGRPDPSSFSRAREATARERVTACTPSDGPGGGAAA
T7 sequence (Q9HC97 whole entry): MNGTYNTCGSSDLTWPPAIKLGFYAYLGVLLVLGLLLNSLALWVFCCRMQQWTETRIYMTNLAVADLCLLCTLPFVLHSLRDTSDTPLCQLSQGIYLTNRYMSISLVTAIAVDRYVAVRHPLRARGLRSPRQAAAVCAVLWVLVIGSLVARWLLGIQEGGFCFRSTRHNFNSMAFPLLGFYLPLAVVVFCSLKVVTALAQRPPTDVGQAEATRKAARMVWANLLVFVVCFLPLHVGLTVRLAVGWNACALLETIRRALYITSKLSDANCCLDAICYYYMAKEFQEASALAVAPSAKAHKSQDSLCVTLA
T6 sequence (P21554 whole entry): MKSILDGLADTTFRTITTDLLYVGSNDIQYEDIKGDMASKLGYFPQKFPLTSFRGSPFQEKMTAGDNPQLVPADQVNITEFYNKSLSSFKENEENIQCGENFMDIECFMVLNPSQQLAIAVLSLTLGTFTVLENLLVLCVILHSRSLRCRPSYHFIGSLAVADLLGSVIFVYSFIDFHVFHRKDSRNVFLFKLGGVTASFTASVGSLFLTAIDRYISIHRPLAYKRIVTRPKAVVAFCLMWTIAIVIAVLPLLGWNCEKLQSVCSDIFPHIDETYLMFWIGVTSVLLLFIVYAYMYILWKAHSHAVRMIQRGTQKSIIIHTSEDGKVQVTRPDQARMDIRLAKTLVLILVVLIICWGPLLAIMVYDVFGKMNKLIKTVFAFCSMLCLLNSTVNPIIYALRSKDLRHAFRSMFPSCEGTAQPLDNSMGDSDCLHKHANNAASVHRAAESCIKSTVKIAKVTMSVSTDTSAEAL
T3 sequence (Q8VNN2 whole entry): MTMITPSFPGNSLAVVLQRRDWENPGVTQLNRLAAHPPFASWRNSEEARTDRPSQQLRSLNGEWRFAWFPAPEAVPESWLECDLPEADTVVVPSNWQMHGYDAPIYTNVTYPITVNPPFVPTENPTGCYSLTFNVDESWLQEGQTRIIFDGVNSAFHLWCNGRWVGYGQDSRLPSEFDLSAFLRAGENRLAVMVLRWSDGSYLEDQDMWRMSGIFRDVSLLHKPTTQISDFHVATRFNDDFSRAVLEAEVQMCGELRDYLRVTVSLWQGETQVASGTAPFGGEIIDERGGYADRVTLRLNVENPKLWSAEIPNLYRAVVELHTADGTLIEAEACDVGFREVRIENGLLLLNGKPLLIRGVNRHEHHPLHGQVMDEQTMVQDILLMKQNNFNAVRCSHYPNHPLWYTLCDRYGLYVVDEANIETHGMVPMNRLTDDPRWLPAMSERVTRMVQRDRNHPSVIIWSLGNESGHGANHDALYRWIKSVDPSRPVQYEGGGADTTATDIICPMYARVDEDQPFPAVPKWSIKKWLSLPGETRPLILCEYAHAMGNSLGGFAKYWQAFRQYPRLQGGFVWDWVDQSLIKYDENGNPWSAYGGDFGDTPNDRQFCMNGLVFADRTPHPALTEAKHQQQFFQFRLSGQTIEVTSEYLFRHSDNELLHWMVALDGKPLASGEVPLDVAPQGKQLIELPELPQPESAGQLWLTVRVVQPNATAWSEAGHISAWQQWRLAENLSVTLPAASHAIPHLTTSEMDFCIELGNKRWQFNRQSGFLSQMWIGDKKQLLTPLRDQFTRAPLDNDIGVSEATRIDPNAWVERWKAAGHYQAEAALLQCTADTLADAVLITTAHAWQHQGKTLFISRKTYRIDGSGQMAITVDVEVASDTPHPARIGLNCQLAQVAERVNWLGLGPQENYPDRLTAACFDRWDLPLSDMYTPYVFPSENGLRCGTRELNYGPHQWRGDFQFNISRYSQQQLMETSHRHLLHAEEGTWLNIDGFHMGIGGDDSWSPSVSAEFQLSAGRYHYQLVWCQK
T2 sequence (P41145 whole entry): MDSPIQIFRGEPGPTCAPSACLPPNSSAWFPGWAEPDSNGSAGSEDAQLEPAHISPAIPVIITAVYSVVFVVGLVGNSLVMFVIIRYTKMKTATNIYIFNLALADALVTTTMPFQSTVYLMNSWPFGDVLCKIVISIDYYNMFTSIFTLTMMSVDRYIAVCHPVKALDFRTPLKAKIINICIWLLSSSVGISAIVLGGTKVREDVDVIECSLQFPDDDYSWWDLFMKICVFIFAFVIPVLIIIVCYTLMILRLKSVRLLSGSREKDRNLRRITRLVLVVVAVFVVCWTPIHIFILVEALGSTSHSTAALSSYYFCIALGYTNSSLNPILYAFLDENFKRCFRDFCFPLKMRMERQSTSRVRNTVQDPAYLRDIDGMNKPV
T8 sequence (P34972 whole entry): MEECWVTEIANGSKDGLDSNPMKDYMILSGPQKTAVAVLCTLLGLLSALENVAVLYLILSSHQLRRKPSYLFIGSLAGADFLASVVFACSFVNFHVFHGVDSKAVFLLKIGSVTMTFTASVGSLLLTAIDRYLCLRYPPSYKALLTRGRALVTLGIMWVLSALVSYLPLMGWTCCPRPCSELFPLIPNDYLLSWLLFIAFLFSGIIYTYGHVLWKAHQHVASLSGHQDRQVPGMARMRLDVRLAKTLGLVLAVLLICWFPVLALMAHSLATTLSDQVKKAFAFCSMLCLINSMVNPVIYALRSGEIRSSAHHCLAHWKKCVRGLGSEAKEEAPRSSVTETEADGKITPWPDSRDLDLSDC
Mu-type opioid receptor, sequence (P35372 whole entry): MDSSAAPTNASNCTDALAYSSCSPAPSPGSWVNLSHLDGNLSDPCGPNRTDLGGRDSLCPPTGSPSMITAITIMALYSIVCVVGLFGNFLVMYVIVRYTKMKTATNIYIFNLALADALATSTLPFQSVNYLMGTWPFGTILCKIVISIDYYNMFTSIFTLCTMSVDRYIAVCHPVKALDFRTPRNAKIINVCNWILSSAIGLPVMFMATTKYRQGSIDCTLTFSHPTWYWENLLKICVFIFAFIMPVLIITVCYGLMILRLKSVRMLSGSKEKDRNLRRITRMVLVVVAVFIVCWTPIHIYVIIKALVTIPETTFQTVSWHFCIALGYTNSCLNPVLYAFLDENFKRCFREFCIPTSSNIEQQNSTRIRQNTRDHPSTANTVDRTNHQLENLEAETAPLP

- EC50 [1]: 10 µM (active)
Structure (SMILES): O=C(COc1ccccc1Cl)N[C@H]1CCCN(Cc2ccccc2)C1

Structure (SMILES): Oc1cc(/C=C/c2c(F)cccc2Cl)nc2ccccc12
- IC50 [2]: > 49.7 µM (inactive)
- IC50 [3]: 9.6 µM (active)
- IC50 [4]: 3.14 µM (active)
- IC50 (CHO-K1): > 66.2 µM (inactive)

Structure (SMILES): COc1cccc(/C=C/c2ccc3cccc(O)c3n2)c1OC
- EC50 (HEK293 [5]): > 20 µM (inactive)
- EC50 (Mu-type opioid receptor): > 32 µM (inactive)
- IC50 [6]: > 31.5 µM (inactive)
- EC50 (Streptococcus): 7.81 µM (active)
- EC50 (Beta-galactosidase [7]): > 40 µM (inactive)
- IC50 [8]: > 32 µM
- EC50 [9]: > 32 µM (inactive)
- EC50 [10]: 1.68 µM (active)
- IC50 (HEK293 [11]): 10.6 µM (active)
- IC50 (HEK293 [12]): > 20 µM (inactive)
- IC50 [13]: > 32 µM (inactive)
- IC50 (HEK293 [14]): 5.45 µM (inactive)
- EC50 (Beta-galactosidase [15]): > 31.5 µM (inactive)
- IC50 [16]: 15.6 µM (active)

- EC50 (Cannabinoid receptor 1 [17]): > 32 µM (inactive)
- IC50 (Cannabinoid receptor 1 [18]): 13.3 µM (inactive)
- EC50 [19]: > 32 µM (inactive)
- IC50 (Cannabinoid receptor 2 [20]): > 32 µM (inactive)
- IC50 [21]: > 32 µM (inactive)
- EC50 (Cannabinoid receptor 2 [22]): > 32 µM (inactive)
- IC50 [23]: > 32 µM (inactive)
Structure (SMILES): Cc1nc(N2CCN(C(=O)c3ccncc3)CC2)c2c3c(sc2n1)CC(C)CC3 (stereo unspecified)

From ChEMBL document CHEMBL1201862, “PubChem BioAssay data set” (2004)
